Among the data in patent US20060235061A1, “Methods of using benzothiophenone derivatives to treat cancer or inflammation” (QLT,Inc., priority 2002, published 2006) are inhibition values, retold here.

For the assay, the target named is T1, Caspase-3 (Homo sapiens, UniProt P42574).
T1 construct: purchased Calbiochem
T1 sequence (P42574 29-175 limits assumed): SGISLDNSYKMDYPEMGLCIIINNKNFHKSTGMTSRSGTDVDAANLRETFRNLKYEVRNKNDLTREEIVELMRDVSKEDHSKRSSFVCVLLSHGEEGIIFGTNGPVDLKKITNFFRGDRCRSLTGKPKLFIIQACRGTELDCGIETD
T1 sequence (P42574 176-277 limits assumed): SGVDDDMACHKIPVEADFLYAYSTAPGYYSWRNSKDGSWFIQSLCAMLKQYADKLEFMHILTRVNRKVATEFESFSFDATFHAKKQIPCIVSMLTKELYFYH
The assay can be described thus: Caspase-3 selectivity assay (Calbiochem kit, colorimetric). In kind it is biochemical. The text has this: This is a selectivity assay providing information about the specificity of the compounds. A cysteine residue located within the active pocket of the catalytic domain that is conserved between the […] like caspase-3 and the protein tyrosine phosphatases like PTPN12 has a thiol group within this cysteine amino acid that may interact with specific R-groups with inhibiting compounds with in vitro enzyme inhibiting activity. Also, caspase inhibition can prevent apoptosis from occurring in some cases via the caspase cascade. As the potential for cross-inhibitory activity and nonselectivity exists, the caspase-3 assay is performed on PTN12 inhibitors.
The Calbiochem caspase-3 assay kit was utilized according to package insert instructions. The assay is useful for screening for caspase-3 inhibitors measuring the protease activity of caspase-3 and other caspase-3-like activities. Cleavage is monitored colorimetrically by measuring the increase in absorbance at 405 nm. Assays were performed in a 96-well microtiter plate format.

In the case of `O=C1C(=CC=CC=C2Sc3ccccc3N2CCCS(=O)(=O)O)Sc2ccccc21` [3-{2-[4-(3-Oxo-3H-benzo[b]thiophen-2-ylidene)-but-2-enylidene]-benzothiazol-3-yl}-propane-1-sulfonic acid], 10 µM produced 3% inhibition (@ 10 μM). This compound also registered an inhibition at 100 µM (@ 100 μM) of 27%.

As a reminder, the inhibition is the share of the control response that was lost under treatment. High values mean a response far below the control, low ones a response near the control.
